In test [1] the target is Serine/threonine-protein kinase PAK 5 (Homo sapiens) (UniProt Q9P286). The test is described as follows: Inhibition of N-terminal GST-fused human PAK5 catalytic domain (425 to 719 residues) expressed in baculovirus expression system using DAPK1tide as substrate at 1 uM in presence of ATP by Mobility shift assay.
The target in test [2] is Serine/threonine-protein kinase PAK 1 (Homo sapiens) (UniProt Q13153). Briefly: Inhibition of N-terminal GST-fused full length human PAK1 (1 to 545 residues) expressed in baculovirus expression system using LIMKtide as substrate at 1 uM in presence of ATP by Mobility shift assay.
Test [3] deals with Serine/threonine-protein kinase MARK1 (Homo sapiens) (UniProt Q9P0L2). The test is described as follows: Inhibition of N-terminal GST-fused full length human MARK1 (1 to 795 residues) expressed in baculovirus expression system using CHKtide as substrate at 1 uM in presence of ATP by Mobility shift assay.
Test [4] has as its target Protein kinase C alpha type (Homo sapiens) (UniProt P17252). Briefly: Inhibition of N-terminal GST-fused human full length PKC-alpha (1 to 672 residues ) expressed in baculovirus expression system using PKC peptide as substrate at 1 uM in presence of ATP by Mobility shift assay.
The target in test [5] is Sphingosine kinase 2 (Homo sapiens) (UniProt Q9NRA0). Briefly: Inhibition of N-terminal GST-fused full length human SPHK2 (1 to 618 residues) expressed in baculovirus expression system using Sphingosine as substrate at 1 uM in presence of ATP by Mobility shift assay.
For test [6], the target named is Serine/threonine-protein kinase D3 (Homo sapiens) (UniProt O94806). Briefly: Inhibition of N-terminal GST-fused full length human PKD3 (1 to 890 residues) expressed in baculovirus expression system using GS peptide as substrate at 1 uM in presence of ATP by Mobility shift assay.
In test [7] the target is Macrophage colony-stimulating factor 1 receptor (Homo sapiens) (UniProt P07333). The test is described as follows: Inhibition of N-terminal GST-fused human FMS cytoplasmic domain (538 to 972 residues) expressed in baculovirus-infected Sf21 cells using Srctide as substrate at 1 uM in presence of ATP by Mobility shift assay.
Test [8] has as its target Protein kinase C zeta type (Homo sapiens) (UniProt Q05513). The test is described as follows: Inhibition of N-terminal GST-fused human full length PKC-zeta (1 to 592 residues ) expressed in baculovirus expression system using PKC peptide as substrate at 1 uM in presence of ATP by Mobility shift assay.
Test [9] deals with Ephrin type-A receptor 6 (Homo sapiens) (UniProt Q9UF33). The test is described as follows: Inhibition of N-terminal GST-fused human EPHA6 cytoplasmic domain (683 to 1130 residues) expressed in baculovirus-infected Sf21 cells using Blk/Lyntide as substrate at 1 uM in presence of ATP by Mobility shift assay.
The target in test [10] is Tyrosine-protein kinase Blk (Homo sapiens) (UniProt P51451). Briefly: Inhibition of N-terminal GST-fused full length human BLK (1 to 505 residues) expressed in baculovirus-infected Sf21 cells using Srctide as substrate at 1 uM in presence of ATP by Mobility shift assay.
Test [11] deals with CDK2/Cyclin A2 (Homo sapiens) (UniProt P24941+P20248). Briefly: Inhibition of N-terminal GST-tagged full length human CDK2 (1 to 298 residues)/GST-tagged human CyclinA2 (1 to 432 residues) expressed in baculovirus-infected Sf21 cells using Modified Histone H1 as substrate at 1 uM in presence of ATP by Mobility shift assay.
In test [12] the target is Ephrin type-B receptor 4 (Homo sapiens) (UniProt P54760). The test is described as follows: Inhibition of N-terminal GST-fused human EPHB4 cytoplasmic domain (577 to 987 residues) expressed in baculovirus-infected Sf21 cells using Blk/Lyntide as substrate at 1 uM in presence of ATP by Mobility shift assay.
Test [13] addresses Tyrosine-protein kinase JAK2 (Homo sapiens) (UniProt O60674). Briefly: Inhibition of N-terminal His-tagged human JAK2 catalytic domain (826 to 1132 residues) expressed in baculovirus-infected Sf21 cells using Srctide as substrate at 1 uM in presence of ATP by Mobility shift assay.
In test [14] the target is Ribosomal protein S6 kinase alpha-4 (Homo sapiens) (UniProt O75676). Briefly: Inhibition of N-terminal GST-fused full length human MSK2 (1 to 772 residues) expressed in baculovirus expression system using Crosstide as substrate at 1 uM in presence of ATP by Mobility shift assay.
For test [15], the target named is Insulin-like growth factor 1 receptor (Homo sapiens) (UniProt P08069). Briefly: Inhibition of N-terminal GST-fused human IGF1R cytoplasmic domain (959 to 1367 residues) expressed in baculovirus-infected Sf21 cells using IRS1 as substrate at 1 uM in presence of ATP by Mobility shift assay.
Test [16] deals with cAMP-dependent protein kinase catalytic subunit PRKX (Homo sapiens) (UniProt P51817). The test is described as follows: Inhibition of N-terminal GST-fused full length human PRKX (1 to 358 residues) expressed in baculovirus expression system using Kemptide as substrate at 1 uM in presence of ATP by Mobility shift assay.
Test [17] deals with Serine/threonine-protein kinase BRSK2 (Homo sapiens) (UniProt Q8IWQ3). The test is described as follows: Inhibition of N-terminal GST-tagged full length human BRSK2 (1 to 674 residues) expressed in baculovirus-infected Sf21 cells using CHKtide as substrate at 1 uM in presence of ATP by Mobility shift assay.
The target of test [18] is Mitogen-activated protein kinase 8 (Homo sapiens) (UniProt P45983). Briefly: Inhibition of N-terminal GST-fused human JNK1 catalytic domain (2 to 364 residues) expressed in Escherichia coli expression system using Modified ERKtide as substrate at 1 uM in presence of ATP by Mobility shift assay.
The target of test [19] is Mast/stem cell growth factor receptor Kit (Homo sapiens) (UniProt P10721). The test is described as follows: Inhibition of N-terminal GST-tagged human KIT cytoplasmic domain (544 to 976 residues) expressed in baculovirus-infected Sf21 cells using Srctide as substrate at 1 uM in presence of ATP by Mobility shift assay.
For test [20], the target named is Ephrin type-A receptor 1 (Homo sapiens) (UniProt P21709). The test is described as follows: Inhibition of N-terminal GST-fused human EPHA1 cytoplasmic domain (586 to 976 residues) expressed in baculovirus-infected Sf21 cells using Blk/Lyntide as substrate at 1 uM in presence of ATP by Mobility shift assay.
The target of test [21] is Tyrosine-protein kinase receptor TYRO3 (Homo sapiens) (UniProt Q06418). The test is described as follows: Inhibition of N-terminal GST-tagged human TYRO3 cytoplasmic domain (453 to 890 residues) expressed in baculovirus-infected Sf21 cells using CSKtide as substrate at 1 uM in presence of ATP by Mobility shift assay.
The target of test [22] is Serine/threonine-protein kinase SIK1 (Homo sapiens) (UniProt P57059). Briefly: Inhibition of N-terminal GST-fused full length human SIK (1 to 783 residues) expressed in baculovirus expression system using AMARA peptide as substrate at 1 uM in presence of ATP by Mobility shift assay.

Broadly, the inhibition is the drop in the measured response relative to a control, in per cent.

Insulin-like growth factor 1 receptor (Homo sapiens), sequence (P08069 31-736 limits assumed): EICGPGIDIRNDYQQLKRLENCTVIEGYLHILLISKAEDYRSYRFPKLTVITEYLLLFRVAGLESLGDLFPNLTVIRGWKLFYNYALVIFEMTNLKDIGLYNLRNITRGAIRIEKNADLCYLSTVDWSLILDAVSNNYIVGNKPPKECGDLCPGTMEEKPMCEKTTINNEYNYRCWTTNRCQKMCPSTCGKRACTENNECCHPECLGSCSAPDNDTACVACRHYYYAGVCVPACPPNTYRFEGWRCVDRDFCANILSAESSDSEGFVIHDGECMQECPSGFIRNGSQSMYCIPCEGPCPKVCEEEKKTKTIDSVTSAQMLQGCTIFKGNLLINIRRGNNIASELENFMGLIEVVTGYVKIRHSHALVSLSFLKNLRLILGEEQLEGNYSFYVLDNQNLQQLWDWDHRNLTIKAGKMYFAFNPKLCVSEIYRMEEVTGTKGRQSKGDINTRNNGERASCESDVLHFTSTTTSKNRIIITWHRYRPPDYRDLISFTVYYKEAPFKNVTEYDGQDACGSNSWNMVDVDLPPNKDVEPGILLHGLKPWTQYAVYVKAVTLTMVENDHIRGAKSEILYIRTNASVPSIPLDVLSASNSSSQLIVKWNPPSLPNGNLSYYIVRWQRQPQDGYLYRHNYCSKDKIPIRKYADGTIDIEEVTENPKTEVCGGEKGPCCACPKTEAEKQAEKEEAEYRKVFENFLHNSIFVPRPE
Insulin-like growth factor 1 receptor (Homo sapiens), sequence (P08069 741-1367 limits assumed): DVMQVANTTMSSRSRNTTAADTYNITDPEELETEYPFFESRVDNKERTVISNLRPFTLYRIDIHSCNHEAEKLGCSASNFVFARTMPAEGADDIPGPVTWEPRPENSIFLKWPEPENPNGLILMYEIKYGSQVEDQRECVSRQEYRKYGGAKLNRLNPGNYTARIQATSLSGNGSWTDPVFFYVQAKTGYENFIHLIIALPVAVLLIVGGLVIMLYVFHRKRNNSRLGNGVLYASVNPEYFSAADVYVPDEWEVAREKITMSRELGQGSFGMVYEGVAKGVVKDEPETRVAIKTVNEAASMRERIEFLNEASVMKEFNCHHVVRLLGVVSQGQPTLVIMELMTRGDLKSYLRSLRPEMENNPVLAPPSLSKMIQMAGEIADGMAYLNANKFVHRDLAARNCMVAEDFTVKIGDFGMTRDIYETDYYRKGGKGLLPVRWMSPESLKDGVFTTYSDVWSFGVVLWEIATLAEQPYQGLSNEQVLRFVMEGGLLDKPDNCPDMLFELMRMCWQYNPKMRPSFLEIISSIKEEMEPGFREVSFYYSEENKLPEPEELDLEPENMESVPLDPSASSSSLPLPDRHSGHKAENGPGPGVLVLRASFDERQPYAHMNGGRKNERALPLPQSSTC
Serine/threonine-protein kinase BRSK2 (Homo sapiens), sequence (Q8IWQ3 whole entry, the tested form may be a part): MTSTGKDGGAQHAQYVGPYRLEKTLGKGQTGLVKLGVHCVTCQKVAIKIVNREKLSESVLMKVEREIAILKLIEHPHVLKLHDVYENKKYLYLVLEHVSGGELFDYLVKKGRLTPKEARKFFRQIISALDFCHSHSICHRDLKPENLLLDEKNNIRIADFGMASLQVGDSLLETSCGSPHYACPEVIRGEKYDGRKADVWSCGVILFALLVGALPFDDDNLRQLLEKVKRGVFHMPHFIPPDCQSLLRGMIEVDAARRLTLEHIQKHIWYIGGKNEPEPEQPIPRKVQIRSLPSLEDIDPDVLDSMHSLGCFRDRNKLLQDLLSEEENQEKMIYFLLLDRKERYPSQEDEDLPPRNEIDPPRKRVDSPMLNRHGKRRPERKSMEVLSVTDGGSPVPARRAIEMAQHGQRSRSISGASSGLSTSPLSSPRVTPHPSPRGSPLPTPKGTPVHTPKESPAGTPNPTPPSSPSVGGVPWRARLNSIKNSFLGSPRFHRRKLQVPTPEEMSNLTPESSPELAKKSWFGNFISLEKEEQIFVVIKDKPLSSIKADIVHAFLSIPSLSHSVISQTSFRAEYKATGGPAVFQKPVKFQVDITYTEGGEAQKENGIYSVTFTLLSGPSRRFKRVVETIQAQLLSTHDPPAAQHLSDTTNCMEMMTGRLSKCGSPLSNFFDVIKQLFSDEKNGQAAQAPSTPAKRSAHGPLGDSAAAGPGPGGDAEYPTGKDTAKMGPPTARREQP
Mast/stem cell growth factor receptor Kit (Homo sapiens), sequence (P10721 whole entry, the tested form may be a part): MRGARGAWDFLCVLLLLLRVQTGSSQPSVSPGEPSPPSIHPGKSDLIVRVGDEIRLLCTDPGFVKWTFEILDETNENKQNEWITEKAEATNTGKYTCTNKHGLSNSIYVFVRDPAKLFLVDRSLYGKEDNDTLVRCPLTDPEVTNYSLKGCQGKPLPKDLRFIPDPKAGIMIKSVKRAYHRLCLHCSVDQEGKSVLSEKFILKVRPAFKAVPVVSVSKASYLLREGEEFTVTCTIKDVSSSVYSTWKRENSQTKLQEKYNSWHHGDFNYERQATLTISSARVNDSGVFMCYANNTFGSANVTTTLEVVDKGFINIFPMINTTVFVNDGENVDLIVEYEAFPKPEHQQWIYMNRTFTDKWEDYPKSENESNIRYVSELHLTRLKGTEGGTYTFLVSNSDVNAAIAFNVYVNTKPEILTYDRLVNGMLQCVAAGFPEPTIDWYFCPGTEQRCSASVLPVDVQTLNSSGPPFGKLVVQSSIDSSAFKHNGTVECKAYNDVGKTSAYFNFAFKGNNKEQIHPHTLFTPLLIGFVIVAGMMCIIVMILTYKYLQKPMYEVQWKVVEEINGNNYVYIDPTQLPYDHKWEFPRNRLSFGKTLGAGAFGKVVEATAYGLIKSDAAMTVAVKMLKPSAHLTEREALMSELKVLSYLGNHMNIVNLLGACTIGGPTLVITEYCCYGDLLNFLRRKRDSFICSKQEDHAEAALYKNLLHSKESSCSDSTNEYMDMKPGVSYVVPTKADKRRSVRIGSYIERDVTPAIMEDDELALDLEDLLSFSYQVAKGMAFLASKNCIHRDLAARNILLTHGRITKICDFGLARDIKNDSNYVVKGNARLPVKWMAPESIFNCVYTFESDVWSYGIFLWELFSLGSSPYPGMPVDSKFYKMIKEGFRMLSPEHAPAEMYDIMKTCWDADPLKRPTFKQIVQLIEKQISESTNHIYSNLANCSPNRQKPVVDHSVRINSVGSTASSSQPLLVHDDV
cAMP-dependent protein kinase catalytic subunit PRKX (Homo sapiens), sequence (P51817 whole entry, the tested form may be a part): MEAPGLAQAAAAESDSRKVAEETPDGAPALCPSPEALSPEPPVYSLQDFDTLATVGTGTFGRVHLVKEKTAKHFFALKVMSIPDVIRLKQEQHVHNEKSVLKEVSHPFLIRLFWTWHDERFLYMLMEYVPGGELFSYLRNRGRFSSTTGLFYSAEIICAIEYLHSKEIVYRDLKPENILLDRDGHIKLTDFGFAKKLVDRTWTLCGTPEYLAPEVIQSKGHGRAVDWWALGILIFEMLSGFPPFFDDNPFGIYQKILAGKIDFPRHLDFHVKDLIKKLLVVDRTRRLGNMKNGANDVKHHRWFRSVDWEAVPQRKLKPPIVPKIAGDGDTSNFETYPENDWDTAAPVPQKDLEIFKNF
Serine/threonine-protein kinase MARK1 (Homo sapiens), sequence (Q9P0L2 whole entry, looked up, the tested form may be a part): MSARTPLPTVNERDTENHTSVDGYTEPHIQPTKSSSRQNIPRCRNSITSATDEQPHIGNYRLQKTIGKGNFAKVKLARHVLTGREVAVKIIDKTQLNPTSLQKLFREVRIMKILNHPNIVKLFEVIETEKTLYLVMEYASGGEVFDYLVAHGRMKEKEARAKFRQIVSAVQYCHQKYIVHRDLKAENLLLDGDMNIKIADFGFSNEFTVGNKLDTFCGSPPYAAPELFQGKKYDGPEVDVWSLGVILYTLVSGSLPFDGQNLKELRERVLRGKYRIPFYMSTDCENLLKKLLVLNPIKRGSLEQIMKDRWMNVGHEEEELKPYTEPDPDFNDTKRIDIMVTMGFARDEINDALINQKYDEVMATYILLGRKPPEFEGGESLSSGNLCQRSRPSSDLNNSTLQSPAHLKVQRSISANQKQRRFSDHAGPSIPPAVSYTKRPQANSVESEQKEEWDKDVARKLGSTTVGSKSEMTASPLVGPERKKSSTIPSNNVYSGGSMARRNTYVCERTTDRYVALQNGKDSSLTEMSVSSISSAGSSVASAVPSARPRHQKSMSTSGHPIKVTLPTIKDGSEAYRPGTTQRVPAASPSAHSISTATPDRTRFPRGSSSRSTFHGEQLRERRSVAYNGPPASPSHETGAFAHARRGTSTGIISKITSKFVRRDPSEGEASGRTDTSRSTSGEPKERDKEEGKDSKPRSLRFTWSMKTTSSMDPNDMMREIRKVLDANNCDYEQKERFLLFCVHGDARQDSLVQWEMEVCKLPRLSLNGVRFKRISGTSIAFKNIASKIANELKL
Sphingosine kinase 2 (Homo sapiens), sequence (Q9NRA0 whole entry, the tested form may be a part): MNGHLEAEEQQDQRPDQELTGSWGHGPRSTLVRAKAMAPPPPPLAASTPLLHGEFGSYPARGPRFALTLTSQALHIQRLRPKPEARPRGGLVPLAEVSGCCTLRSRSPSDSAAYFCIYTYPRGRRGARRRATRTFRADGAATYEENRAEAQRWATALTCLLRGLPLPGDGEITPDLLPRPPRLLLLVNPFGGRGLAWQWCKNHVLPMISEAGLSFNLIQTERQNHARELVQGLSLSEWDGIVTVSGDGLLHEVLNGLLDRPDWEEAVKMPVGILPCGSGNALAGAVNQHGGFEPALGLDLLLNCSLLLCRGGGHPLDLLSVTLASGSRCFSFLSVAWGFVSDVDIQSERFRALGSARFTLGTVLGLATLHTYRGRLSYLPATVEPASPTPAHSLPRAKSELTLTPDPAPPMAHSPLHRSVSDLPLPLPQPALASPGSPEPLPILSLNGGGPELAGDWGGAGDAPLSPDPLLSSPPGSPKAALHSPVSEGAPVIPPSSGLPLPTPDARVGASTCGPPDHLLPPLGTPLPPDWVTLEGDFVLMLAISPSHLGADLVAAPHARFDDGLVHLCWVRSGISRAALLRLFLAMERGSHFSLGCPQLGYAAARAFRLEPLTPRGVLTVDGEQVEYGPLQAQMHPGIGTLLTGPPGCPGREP

Regarding `Cc1cc(C)c(CNC(=O)c2cc(Br)c3c(c2C)O[C@@](C)([C@H]2CC[C@H](N(C)C)CC2)O3)c(=O)[nH]1`, the inhibition in test [1] was -4.3%; in [2], 2.3%; in test [3], -4.5%; in test [4], 4.7%; in [5], 12.7%; in test [6] it was 6.7%. Moreover, the inhibition in test [7] is -0.4%; in [8] it was 3.2%; in test [9], -3.8%; in test [10], -3.1%; in [11], -0.3%; in test [12], -6.1%. Further, the inhibition in [13] is -4.4%; in test [14], 0.1%; in test [15], -2.9%; in [16] it was -0.6%; in test [17] it was 6.6%; in test [18], -3.4%. Further, the inhibition in test [19] is -4.7%; in [20] it was -2.8%; in test [21], 0.9%; in [22] it was -3.1%.
With `Cc1cc(C)c(CNC(=O)c2cc(Cl)c3c(c2C)O[C@@](C)([C@H]2CC[C@H](N(C)C)CC2)O3)c(=O)[nH]1` [VALEMETOSTAT], the inhibition in test [1] is -3.9%; in [2], 2.6%; in test [3] it was -7.1%; in [4], 24%; in test [5], 8%; in test [6] it was 3.5%. Also, the inhibition in test [7] is 1.3%; in [8], 9.3%; in test [9], 0.1%; in [10], -5%; in [11], 3%; in test [12] it was -4.7%. Moreover, the inhibition in [13] is -4.5%; in test [14], -2%; in test [15] it was -4.5%; in test [16] it was -1.9%; in test [17], 11.2%; in test [18], -4.9%. In addition, the inhibition in test [19] was -5.6%; in test [20] it was -1.6%; in [21], -2.6%; in test [22], 6.2%.

The values are drawn from ChEMBL document CHEMBL5647694, “Novel orally bioavailable EZH1/2 dual inhibitors with greater antitumor efficacy than an EZH2 selective inhibitor” (Cancer Sci, 2017).
